Molecules are shown by their SMILES. Some results are limits rather than exact numbers.

`COc1ccc(/C(C)=C\c2ccc(C(=O)O)cc2)cc1C(C)(C)C`: the melting point (commonly the temperature, or range, at which the solid turns liquid) fell in the range of 182 to 184 °C. Then `CC(C)(C)OC(=O)N1CCN(C(=O)C2CCN(C(=O)OCc3ccccc3)C2)CC1` (configuration not stated), with 70 to 74 °C; and `CP1(=O)c2ccccc2CN1c1ccc(Cl)c(Cl)c1` (configuration not stated), with 152 to 154 °C.

Compound `C#Cc1ncn2c1CN(C)C(=O)c1ccccc1-2` yielded a melting point of 191 to 193 °C. In the case of `COC[C@](C#N)(C(=O)N1CCN(c2cnccn2)CC1)[C@H](c1ccccc1OC)c1cccc2ccccc12`, the melting point came to 149 °C. Compound `COc1ccc(C(=O)c2c(Cc3ccccc3)sc(C)c2C)cc1` displayed a melting point of 85 to 86 °C. Then `O=C(O)C(CC(=O)N1CCOCC1)Oc1ccccc1` (configuration not stated), with 150 to 151 °C; and `CC(C)(C)OC(=O)CN1C(=O)c2ccccc2S1(=O)=O`, with 130 to 132 °C; and `O=C(c1ccc(F)cc1)N1CCC[C@H](c2nc(-c3ccc[nH]3)no2)C1`, with 130 to 135 °C. Then `Cc1cncc(C)c1CO`, with 93 to 95 °C; and `Cn1nc(-c2cnc3[nH]cc(C(=O)NC4CCCCC4)c3n2)c2ccc(Cl)cc21`, with 321 to 323 °C; and `Nc1ncnc2c1ccn2C1C=CC(CO)C1` (configuration not stated), with 165 to 168 °C. The figure for `CCCCCCCCCCCCNC(=O)ON=C(C1=C(Br)C(=O)C(C)(C)O1)c1ccccc1` is 61.5 to 62.5 °C; for `CSC(=S)N1CCN(Cc2ccccc2N(C)C)CC1` it is 90 to 91 °C.

In turn, `Cc1cc(F)ccc1-c1nc(NCCNC(=O)NC2CCCCC2)nc2c1ccc(=O)n2-c1c(F)cccc1F` returned a melting point of 131 to 144 °C. Compound `Brc1cccc(OCc2ccc3ccccc3c2)n1` had a melting point of 67 to 69 °C. `CCOC(=O)c1sc(-n2ccc(O)cc2=O)nc1C`: the melting point was in the range of 270 to 273 °C. The figure for `N=C(c1ccccc1)c1ccccc1N` is 48 °C; for `O=C1CCC(c2ccc(N3CC(CO)OC3=O)cc2)CC1` (racemic) it is 152 °C. Then `Cc1nnc2ccc(-c3cccc(NC(C)C)c3)nn12`, with 157 to 159 °C. The compound `Cn1c(C(F)(F)F)cc(=O)n(-c2cc(O)c(Br)cc2F)c1=O` yielded a melting point of 192 °C.

As to `O=C(c1ccc([N+](=O)[O-])c(OCc2ccc(-c3ccccc3-c3nnnn3C(c3ccccc3)(c3ccccc3)c3ccccc3)cc2)c1)N1CCOCC1`, the melting point lay within 188 to 190 °C. The figure for `O=C(Nc1cccc2c(=O)cc(C(=O)O)oc12)c1ccc2oc(COCc3ccccc3)cc2c1` is 215 to 218 °C; for `CN(C(=S)Nc1nc(OCC(F)(F)F)cc(OCC(F)(F)F)n1)c1ccc(C(F)(F)F)cc1` it is 109 to 111 °C. In turn, `C=C(c1ccc(OC)cc1)c1ccc(N(C)C)cc1` gave a melting point of 124 to 126 °C. The figure for `C=Cc1ccc(-c2ccc(OC(C)=O)cc2)cc1` is 119 to 122 °C; for `CCOc1ccc(OCCCN2CCC(C(O)(c3ccc(F)cc3)c3ccc(F)cc3)CC2)cc1` it is 89 to 91 °C.

On to `CCOc1ccc(C2C(=O)Oc3c2cc(C(C)(C)C)cc3C(C)(C)C)cc1` (configuration not stated), for which the melting point lay in the range of 132 to 134 °C. The figure for `CCOC(=O)c1c(Cc2nc[nH]n2)nc2sc3cnccc3c2c1-c1ccc(OC)c(OC)c1` is 172 to 174 °C; for `CCC(=C(N)N)[N+](=O)[O-]` it is 114 to 116 °C; for `CN(C)S(=O)(=O)c1ccc2c(c1)CNc1ccccc1O2` it is 99 to 102 °C. Turning to `CCCCc1nc2c(N)nc3ccccc3c2n1CCS(C)(=O)=O`, the melting point is 226 to 228 °C.

The compound `C[C@@H](N1CCN(S(C)(=O)=O)CC1)[C@](O)(Cn1cncn1)c1ccc(F)cc1F` returned a melting point of 83 to 85 °C. The figure for `O=C1c2ccccc2-n2cnc(C=NO)c2[C@@H]2CCCN12` is 285 °C; for `CCc1cccc2c3c([nH]c12)C(CC)(CC(=O)OC)OCC3=O` (configuration not stated) it is 187 to 189 °C; for `CC(C)c1c(C(=O)N[C@H](C)[C@](O)(Cn2cncn2)c2ccc(F)cc2F)cnn1-c1ccc(Cl)cc1` it is 85 to 92 °C. Then `COc1ccc2c(c1)c1c(n2Cc2ccc(Cl)cc2)CCCC1C(=O)O` (configuration not stated), with 218 to 220 °C. The figure for `COc1cc(OC)nc(-n2nc(C)n(N)c2=O)n1` is 219 °C. In turn, `Cc1ccc(-c2c(NS(=O)(=O)c3ccc(C(C)(C)C)cc3)nc(-c3cccs3)nc2OCCO)cc1` yielded a melting point of over 300 °C. Then `COc1nc(C(F)(F)F)c(F)c(=O)n1-c1cc(C(=O)O)c(Cl)cc1F`, with 199 to 201 °C. Then `O=C(O)c1ccc(NCC2CCCCCCC2)cc1`, with 160 to 162 °C; and `CS(=O)(=O)c1ccc(Oc2ccc(Cl)c(Cl)c2)nc1C#N`, with 168 to 170 °C; and `Nc1ccccc1OCc1ccc2ccccc2n1`, with 62 to 64 °C. The compound `COc1ccc(CC2C(=O)N(Cc3ccccc3)c3ccccc3NC2C)cc1` (configuration not stated) had a melting point of 136 to 137 °C. The figure for `CCCCCCCCCOc1ccccc1/C=C/C(C)=C/C=C/C(C)=C\C(=O)O` is 135 to 136 °C; for `CCN(CC)C(=O)c1ccc2ccccc2c1-c1ccc(C(F)(F)F)cc1` it is 111 to 112 °C.

`CC#CCOc1ccc(SC(CCCCCC)C(=O)O)cc1` (configuration not stated) showed a melting point of 125 °C. Then `CCOc1c(-c2ccc(S(C)(=O)=O)cc2)cnn(-c2ccc(F)c(F)c2)c1=O`, with 121 to 123 °C; and `O=C1CCC2C=C(c3cccnc3)C=C(F)C2N1` (configuration not stated), with 203 °C; and `O=C1N(N(c2ccccc2)c2ccccc2)c2ccccc2C1(Cc1ccncc1)Cc1ccncc1`, with 184 to 186 °C. The figure for `O=c1cc(C(F)(F)F)c2ccc(N3CCOCC3)nc2o1` is 218 to 220 °C; for `COCCc1nc2c(N)nc3c(c2n1CCOCCNC(=O)c1ccccc1)CCCC3` it is 141 to 143 °C.

Compound `CCOC(=O)CN1CCc2c(sc(N)c2C(=O)c2ccccc2)C1` gave a melting point of 115 to 117 °C. `C#CCn1c(=O)ccc2cc(F)c(-n3c(=O)cc(C(F)(F)F)n(C)c3=O)cc21` had a melting point of 236 to 238 °C. As to `COC(=O)COc1cccc2c1S[C@@H](c1ccc(OC)cc1)[C@@H](O)C(=O)N2CCN(C)C` (racemic), the melting point was in the range of 152 to 160 °C.

For the compound `O=C(NCc1ccncc1)c1ccnc(N2CCN(Cc3ccc(F)cc3)C2=O)c1`, the melting point is 205 to 207 °C. `CC(=O)Nc1ccc(OCC(F)(F)F)cc1` had a melting point of 140 to 141 °C. `O=C(Nc1c(C(O)(C(F)(F)F)C(F)(F)F)ccc2ccccc12)c1ccc(Cl)cc1` gave a melting point of 175 to 176 °C. The compound `CCN(CCO)CCCC1CCN(S(=O)(=O)c2ccc(C(F)(F)F)cc2)CC1` had a melting point of 71.3 to 72.7 °C.

Regarding `CCc1ccc(CCOc2ccc(NC(=O)N(C)C)cc2)nc1`, the melting point fell in the range of 121 to 122 °C. The figure for `CC(C)(C)OC(=O)n1cc(C(=O)C2CSC(c3cccnc3)N2)c2cccc(OCc3ccccc3)c21` (configuration not stated) is 91 to 96 °C; for `CS(=O)c1ccccc1S(=O)(=O)c1ccc(NC(=O)C(C)(O)C(F)(F)F)c(Cl)c1` (configuration not stated) it is 118 to 120 °C. Consider `CC(=O)c1nn2c3c(cccc13)CCC2`, for which the melting point lay in the range of 62 to 64 °C.

For the compound `C=Cc1c2c(c(C)c(C)c1N1CCN(c3ccc(OC)cc3)CC1)OC(C)(C)C2`, the melting point was in the range of 135 to 136 °C. Then `Cc1nc(-n2ccc(OCc3ccc(F)cc3)cc2=O)sc1C(=O)NCc1cccnc1`, with 231 to 233 °C; and `Cc1cc(C(=O)OC(CC(C)C)C(=O)O)cc(C)n1` (racemic), with 95 to 96 °C. Then `COc1ccc(/C=C(/C#N)c2cc(OC)c(OC)c(OC)c2)cc1N`, with 144 to 145 °C; and `O=C(NC1CCN(CCc2cccc3ccccc23)CC1)c1ccccc1`, with 160 to 162 °C.

In turn, `O=S(=O)(CC(Cl)(c1ccccc1)c1cc(Cl)ccc1Cl)CC(Cl)(c1ccccc1)c1cc(Cl)ccc1Cl` (configuration not stated) came in with a melting point of 136 °C. The figure for `CC1(C)CNC(=O)C(=O)N1c1cc(F)cc2ccoc12` is 162 to 165 °C; for `CSCc1cccc(-c2nc(=O)c3ccccc3s2)n1` it is 152 to 153 °C; for `NC(=O)NN=Cc1ccc(Oc2cccnc2)cc1` it is 160 to 162 °C. Then `CCOC(=O)c1c(CCc2c[nH]nn2)nc2sc3c(c2c1-c1ccc(OC)c(OC)c1)CCN(C(=O)c1ccccc1)C3`, with 184 to 185 °C; and `Cc1ccc(OCCC(CCl)NC(=O)c2c(F)cccc2F)cc1` (configuration not stated), with 97 to 99 °C; and `Cc1nc(-c2cc(Cl)ccc2Cl)n2c1nnc1ccc(N3CCOCC3)cc12`, with 239 to 242 °C.

The compound `Cc1cncc2cccc(S(=O)(=O)Cl)c12` gave a melting point of 113 to 118 °C. Then `CC(C)Oc1ccc(C=C(C=O)C(C=O)=Cc2ccc(OC(C)C)cc2)cc1`, with 200 to 202 °C; and `CN1C(=O)CC[C@]2(C)c3ccc(-c4ccc(NC(=O)C(C)(C)C)nc4)cc3CC[C@@H]12`, with 248 to 250 °C. The figure for `COc1cccc(-c2[nH]cc(C3=C[C@@H]4C[C@@H](c5ccccc5)CN4CC3)c2-c2ccncc2)c1` is 141 to 144 °C; for `COc1cc2c(cn1)CCC(=CN(C)C)C2=O` it is 102 to 104 °C; for `COc1cc2ncnc(N3CCC(C(C)CN4CCCS4(=O)=O)CC3)c2cc1OC` (configuration not stated) it is 129 to 131 °C. Regarding `COC(=O)c1cnn2c(O)cc(C(F)(F)F)nc12`, the melting point lay within 216 to 217 °C. Then `O=C(NC[C@H]1CN(c2ccc(C3C=CS(=O)(=O)CC3)cc2)C(=O)O1)C(Cl)Cl` (some centres not stated), with 159 to 161 °C; and `O=c1cc(-c2ccoc2)c2ccc(Sc3cc(F)cc(-c4cccnc4)c3)cc2o1`, with 169 to 170 °C.

Turning to `O=C1NCCCN1C1CCN(Cc2ccccc2)CC1`, the melting point was 178 to 180 °C.

`N#CC1(c2ccccc2)CCN(C(=O)N2CCCc3ccccc32)CC1` showed a melting point of 53 to 59 °C.

As for `CCC(C)CCOc1c(-c2ccc(S(C)(=O)=O)cc2)cnn(-c2ccc(F)c(F)c2)c1=O` (configuration not stated), the melting point was in the range of 100 to 102 °C.
